# Reference: patent US11116760B2 (Gilead Sciences, Inc., priority 2018, dated 2021)
# Molecular target: α4β7 integrin (Homo sapiens (Human), UniProt P13612+P26010)
# Test: α4β7 Integrin Cell Capture Assay
# Assay type: cell-based
# Description: α4β7 Integrin Cell Capture Assay
# The potency of inhibitors in preventing α4β7 integrin interaction with MadCAM-1 was measured by monitoring the capture of α4β7 integrin expressing cells on a recombinant MadCAM-1 extracellular domain-coated plate. […] The plates were then washed with PBS and blocked with 3% BSA for 2 hours before being washed again.
# RPM18866 cells were spun down and re-suspended in assay medium (DMEM+0.5% FBS+0.5 mM MnCl2) at a density of 0.5×10^6 cells/mL. […] The plates were incubated at 37° C. for 1 hour. 50 μL of cells were transferred to the blocked, MadCAM-1-coated plates and incubated for 30 minutes at 37° C. […] The plates were incubated for 90 minutes at room temperature. The plates were then washed 3 times with 70 μL of PBS per well and imaged on a Cellomics ArrayScan instrument. The cells that were bound to the plate were counted and plotted against the compound concentration to determine the EC50 of the test compounds.
# [1] = Table 2, capture of α4β7 expressing RPM18866 cells on MadCAM-1 extracellular domain-coated plate
# [2] = Table 1, capture of α4β7 expressing RPM18866 cells on MadCAM-1 extracellular domain-coated plate
# [3] = RPMI8866 cells captured on MadCAM-1 extracellular domain-coated plate
# Chain of α4β7 integrin (P13612 34-1032): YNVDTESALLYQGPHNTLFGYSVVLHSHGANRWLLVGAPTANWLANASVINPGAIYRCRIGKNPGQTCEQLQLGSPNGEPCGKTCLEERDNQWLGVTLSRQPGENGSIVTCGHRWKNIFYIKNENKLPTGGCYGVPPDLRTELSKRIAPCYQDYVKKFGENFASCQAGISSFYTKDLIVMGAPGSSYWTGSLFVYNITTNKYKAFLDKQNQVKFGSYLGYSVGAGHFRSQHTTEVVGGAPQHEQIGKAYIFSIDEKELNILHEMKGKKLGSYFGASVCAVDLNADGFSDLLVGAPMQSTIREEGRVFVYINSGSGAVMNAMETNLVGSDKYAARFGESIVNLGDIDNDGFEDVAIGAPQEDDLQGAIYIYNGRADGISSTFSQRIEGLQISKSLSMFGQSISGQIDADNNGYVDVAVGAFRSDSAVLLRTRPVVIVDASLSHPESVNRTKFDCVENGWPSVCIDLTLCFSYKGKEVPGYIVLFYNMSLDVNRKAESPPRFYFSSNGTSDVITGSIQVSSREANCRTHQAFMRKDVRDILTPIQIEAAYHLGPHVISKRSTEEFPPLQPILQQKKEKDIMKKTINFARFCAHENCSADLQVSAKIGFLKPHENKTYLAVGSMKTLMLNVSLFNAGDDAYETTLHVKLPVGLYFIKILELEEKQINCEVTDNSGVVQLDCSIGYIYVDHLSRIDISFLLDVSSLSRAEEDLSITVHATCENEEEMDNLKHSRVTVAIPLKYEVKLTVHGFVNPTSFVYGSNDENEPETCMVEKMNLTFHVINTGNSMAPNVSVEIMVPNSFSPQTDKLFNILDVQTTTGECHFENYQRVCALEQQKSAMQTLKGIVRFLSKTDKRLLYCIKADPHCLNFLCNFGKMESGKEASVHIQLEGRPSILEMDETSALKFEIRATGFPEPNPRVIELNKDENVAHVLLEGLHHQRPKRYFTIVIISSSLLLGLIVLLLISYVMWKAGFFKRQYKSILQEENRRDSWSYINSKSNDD
# Chain of α4β7 integrin (P26010 20-798): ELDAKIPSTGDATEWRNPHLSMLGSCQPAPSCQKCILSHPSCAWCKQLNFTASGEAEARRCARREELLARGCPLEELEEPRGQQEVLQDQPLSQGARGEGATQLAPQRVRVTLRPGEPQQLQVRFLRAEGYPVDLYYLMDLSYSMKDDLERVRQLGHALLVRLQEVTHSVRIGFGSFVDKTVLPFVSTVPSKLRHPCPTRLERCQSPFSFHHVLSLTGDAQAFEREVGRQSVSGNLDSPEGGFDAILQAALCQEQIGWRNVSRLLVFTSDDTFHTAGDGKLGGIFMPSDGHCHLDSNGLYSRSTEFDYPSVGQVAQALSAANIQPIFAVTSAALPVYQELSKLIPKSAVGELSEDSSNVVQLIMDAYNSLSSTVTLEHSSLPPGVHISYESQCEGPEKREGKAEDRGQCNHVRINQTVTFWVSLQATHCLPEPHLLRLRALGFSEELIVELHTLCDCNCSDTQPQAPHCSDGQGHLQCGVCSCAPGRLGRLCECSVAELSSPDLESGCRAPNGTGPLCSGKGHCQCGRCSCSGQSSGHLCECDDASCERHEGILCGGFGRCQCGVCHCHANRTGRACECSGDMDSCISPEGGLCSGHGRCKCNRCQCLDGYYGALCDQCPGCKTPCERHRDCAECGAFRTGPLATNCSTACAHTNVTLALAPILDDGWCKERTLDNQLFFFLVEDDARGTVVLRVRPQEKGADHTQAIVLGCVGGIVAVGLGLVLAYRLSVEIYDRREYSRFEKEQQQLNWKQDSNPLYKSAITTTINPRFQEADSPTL
Compound,EC50 [1],EC50 [2],also measured
O=C(N[C@@H](Cc1ccc(-c2ncc3c(n2)CCC3)c2ncccc12)C(=O)O)c1c(F)cc(N2CCOC[C@@H]2C(F)(F)F)cc1F [Example 299],8.2 nM,–,–
"Cc1c(C(F)(F)F)cn(C)c(=O)c1-c1ccc(C[C@H](NC(=O)c2c(F)cc(N3CCOC[C@@H]3C(F)(F)F)cc2F)C(=O)O)c2cccnc12 [Example 106, (S)-2-(2,6-difluoro-4-((R)-3-(trifluoromethyl)morpholino)benzamido)-3-(8-(1,4-dimethyl-2-oxo-5-(trifluoromethyl)-1,2-dihydropyridin-3-yl)quinolin-5-yl)propanoic acid]",–,0.3 nM,–
"CN(C)c1cccnc1-c1ccc(C[C@H](NC(=O)c2c(F)cc(N3CCOC[C@@H]3C(F)(F)F)cc2F)C(=O)O)c2cccnc12 [Example 101, (S)-2-(2,6-difluoro-4-((R)-3-(trifluoromethyl)morpholino)benzamido)-3-(8-(3-(dimethylamino)pyridin-2-yl)quinolin-5-yl)propanoic acid]",–,4.1 nM,–
Cc1cnc(-c2ccc(C[C@H](NC(=O)c3c(F)cc(N4CCOC[C@@H]4C(F)(F)F)cc3F)C(=O)O)c3cccnc23)c(N(C)C)c1 [Example 277],5.2 nM,–,–
"Cc1cc(N2CCOC[C@@H]2C(F)(F)F)cc(F)c1C(=O)N[C@@H](Cc1ccc(-c2c(C(F)(F)F)cc(C)n(C)c2=O)c2ncccc12)C(=O)O [Example 141, (S)-3-(8-(1,6-dimethyl-2-oxo-4-(trifluoromethyl)-1,2-dihydropyridin-3-yl)quinolin-5-yl)-2-(2-fluoro-6-methyl-4-((R)-3-(trifluoromethyl)morpholino)benzamido)propanoic acid]",–,0.1 nM,–
CC[C@@H](Nc1cc(F)c(C(=O)N[C@@H](Cc2ccc(-c3c(C(F)(F)F)cc(C4CC4)n(C)c3=O)c3ncccc23)C(=O)O)c(F)c1)C(F)(F)F [Example 163],0.4 nM,–,–
Cc1ccnc(-c2ccc(C[C@H](NC(=O)c3c(F)cc(N4CCOC[C@@H]4C(F)(F)F)cc3F)C(=O)O)c3cccnc23)c1C [Example 271],4.5 nM,–,–
O=C(N[C@@H](Cc1ccc(-c2ncc3ccc(C4CC4)cc3c2C(F)(F)F)c2ncccc12)C(=O)O)c1c(Cl)cccc1Cl [Example 319],14.4 nM,–,–
Cc1cc(C(F)(F)F)c(-c2ccc(C[C@H](NC(=O)c3c(F)cc(N4CCc5ccccc5[C@@H]4C(F)(F)F)cc3F)C(=O)O)c3cccnc23)c(=O)n1C [Example 472],–,–,EC50 [3]: 0.331 nM
Cc1nc(-c2ccc(C[C@H](NC(=O)c3c(F)cc(N4CCOC[C@@H]4C(F)(F)F)cc3F)C(=O)O)c3cccnc23)nc2cc(F)ccc12 [Example 206],1.7 nM,–,–
CCOc1ccnc(-c2ccc(C[C@H](NC(=O)c3c(F)cc(N4CCOC[C@@H]4C(F)(F)F)cc3F)C(=O)O)c3cccnc23)c1C(F)(F)F [Example 193],1.4 nM,–,–
O=C(N[C@@H](Cc1ccc(-c2nccc(OC3CC3)c2C(F)(F)F)c2ncccc12)C(=O)O)c1c(F)cc(N2CCOC[C@@H]2C(F)(F)F)cc1F [Example 233],2.2 nM,–,–
Cc1cc(N2CCOC[C@@H]2C(F)(F)F)cc(F)c1C(=O)N[C@@H](Cc1ccc(-n2c(=O)c3cc(F)c(-n4ccnc4)cc3n(C)c2=O)c2ncccc12)C(=O)O [Example 418],–,–,EC50 [3]: 0.104 nM
"CC[C@@H](Nc1cc(F)c(C(=O)N[C@@H](Cc2ccc(-c3c(C(F)(F)F)c4cc(N(C)C)ccc4n(C)c3=O)c3ncccc23)C(=O)O)c(F)c1)C(F)(F)F (atropisomer, axis not shown) [Example 168]",0.5 nM,–,–
Nc1ccc(C(F)(F)F)c(-c2ccc(C[C@H](NC(=O)c3c(F)cc(N4CCOC[C@@H]4C(F)(F)F)cc3F)C(=O)O)c3cccnc23)n1 [Example 194],1.4 nM,–,–
CC[C@@H](Nc1cc(F)c(C(=O)N[C@@H](Cc2ccc(-c3c(C(F)(F)F)n(C)cc(C)c3=O)c3ncccc23)C(=O)O)c(F)c1)C(F)(F)F [Example 479],–,–,EC50 [3]: 1.19 nM
"Cc1cc(C)n(C)c(=O)c1-c1ccc(C[C@H](NC(=O)c2c(F)cc(N3CCOC[C@@H]3C(F)(F)F)cc2F)C(=O)O)c2cccnc12 [Example 95, (S)-2-(2,6-difluoro-4-((R)-3-(trifluoromethyl)morpholino)benzamido)-3-(8-(1,4,6-trimethyl-2-oxo-1,2-dihydropyridin-3-yl)quinolin-5-yl)propanoic acid]",–,0.3 nM,–
CCOCc1cc(OC)c(-c2ccc(C[C@H](NC(=O)c3c(F)cc(CS(=O)(=O)c4ccccc4)cc3F)C(=O)O)c3cccnc23)c(OC)c1 [Example 224],2.2 nM,–,–
COc1cc(C)n(C)c(=O)c1-c1ccc(C[C@H](NC(=O)c2c(F)cc(N3CCCC[C@@H]3C(F)(F)F)cc2F)C(=O)O)c2cccnc12 [Example 190],1.2 nM,–,–
Cc1cc(N2CCOC[C@@H]2C(F)(F)F)cc(F)c1C(=O)N[C@@H](Cc1ccc(-n2c(=O)c3cccnc3n(C)c2=O)c2ncccc12)C(=O)O [Example 432],–,–,EC50 [3]: 0.11 nM
Cc1cc(-c2nccn2CC(F)(F)F)cc(F)c1C(=O)N[C@@H](Cc1ccc(-n2c(=O)c3ccncc3n(C)c2=O)c2ncccc12)C(=O)O [Example 419],–,–,EC50 [3]: 0.369 nM
"N#Cc1ccc(-c2ccc(C[C@H](NC(=O)c3c(F)cccc3F)C(=O)O)c3cccnc23)c(Cl)c1 [Example 3, (S)-3-(8-(2-chloro-4-cyanophenyl)quinolin-5-yl)-2-(2,6-difluorobenzamido)propanoic acid]",–,63.8 nM,–

# The next lines start with results.
EC50 [1],EC50 [2],Compound,also measured
0.3 nM,–,Cc1c(Cl)cc(-c2ccc(C[C@H](NC(=O)c3c(F)cc(N4CCOC[C@@H]4C(F)(F)F)cc3F)C(=O)O)c3cccnc23)c(=O)n1C [Example 161],–
–,11.3 nM,N#Cc1ccc(-c2ccc(C[C@H](NC(=O)c3c(F)cc(N[C@H](C4CC4)C(F)(F)F)cc3F)C(=O)O)c3cccnc23)c(Cl)c1 [Example 90],–
29 nM,–,COc1cc(F)c(C(F)(F)F)cc1-c1ccc(C[C@H](NC(=O)c2c(F)cccc2F)C(=O)O)c2cccnc12 [Example 215],–
–,4.2 nM,"CC[C@H](C)Nc1cc(F)c(C(=O)N[C@@H](Cc2ccc(-c3c(C(F)(F)F)cc(C)n(C)c3=O)c3ncccc23)C(=O)O)c(F)c1 [Example 134, (S)-2-(4-(((S)-sec-butyl)amino)-2,6-difluorobenzamido)-3-(8-(1,6-dimethyl-2-oxo-4-(trifluoromethyl)-1,2-dihydropyridin-3-yl)quinolin-5-yl)propanoic acid]",–
46.2 nM,–,Cn1ccc2c(Cl)c(C(=O)N[C@@H](Cc3ccc(-c4ccc(C#N)cc4Cl)c4ncccc34)C(=O)O)c(Cl)cc21 [Example 285],–
–,10.7 nM,"COc1cnn(C)c(=O)c1-c1ccc(C[C@H](NC(=O)c2c(F)cccc2F)C(=O)O)c2cccnc12 [Example 70, (S)-2-(2,6-difluorobenzamido)-3-(8-(5-methoxy-2-methyl-3-oxo-2,3-dihydropyridazin-4-yl)quinolin-5-yl)propanoic acid]",–
47.3 nM,–,C[C@H](O)Cc1cc(F)c(C(=O)N[C@@H](Cc2ccc(-c3ccc(C#N)cc3Cl)c3ncccc23)C(=O)O)c(F)c1 [Example 286],–
–,7 nM,"Cc1cc(C(F)(F)F)c(-c2ccc(C[C@H](NC(=O)c3c(F)cccc3F)C(=O)O)c3cccnc23)nc1C [Example 12, (S)-2-(2,6-difluorobenzamido)-3-(8-(5,6-dimethyl-3-(trifluoromethyl)pyridin-2-yl)quinolin-5-yl)propanoic acid]",–
–,6 nM,N#Cc1ccc(-c2ccc(C[C@H](NC(=O)c3c(F)cc(N4CCOCC4C(F)(F)F)cc3F)C(=O)O)c3cccnc23)c(Cl)c1 (some centres unmarked) [Example 81],–
13.8 nM,–,N#Cc1ccc(-c2ccc(C[C@H](NC(=O)c3c(Cl)cc4cc[nH]c4c3Cl)C(=O)O)c3cccnc23)c(Cl)c1 [Example 317],–
